*1 amine or outer side, *2 acyl side, *3 side chain or, on linkers, in order; H or OH if unused. Where a SMILES comes first, the peptide text is derived from it. Bridges are numbered along the chain shown (N, C = ends). Roman numbers before positions name the chains, in order. [ ]: non-standard residue; d: D form. The star is where a group is joined. X1 = O=C([C@H](CCCn1nnc2c1-c1ccccc1CN([*:3])c1ccccc1-2)N[*:1])[*:2]; Dolaproine = CO[C@@H]([C@@H]1CCCN1)[C@@H](C)C(=O)O; X3 = O=C(CCC(=O)[*:1])NCCOCCOCCOCCC(=O)[*:2]; Dil = CC[C@H](C)[C@H](NC)[C@@H](CC(=O)O)OC; PABC = O=C(OCc1ccc(N[*:1])cc1)[*:2]; X2 = C[C@@H](N*)[C@@H](O)c1ccccc1; Cit = NC(=O)NCCC[C@H](N)C(=O)O; NMeV = CN[C@H](C(=O)O)C(C)C
How the values were obtained:
[1] = test system: RFP-expressing U87MG tumor spheroids; assay: Cell spheroid killing assay over time (IncuCyte); type: cell-based
Experimental: Next, this in vitro model was modified to test if similar cell killing could be visualized in addition to confocal imaging experiments. Spheroids were treated with drug conjugates or MMAE at a range of concentrations. After incubating with drug conjugates for 5 d, media was replaced with fresh media containing SYTOX green. Fluorescence measured by a BioTek Synergy H4 microtiter plate reader was compared to spheroids treated with lysis buffer. […] To visualize this killing over time, spheroids treated with 50 or 100 nM of drug conjugates or MMAE were imaged every 4 h using an IncuCyte.
Spheroids of RFP-expressing U87MG cells were formed by seeding round-bottom, 96-well ultra-low adhesion plates (Corning) with 4×10^3 cells/well and centrifuging at 1000×g for 10 minutes. Spheroids were grown for 2 days before replacing media with 200 μL of fresh media containing 10 nM Cytox Green (ThermoFisher) and 0, 50, or 100 nM KDC, KFDC, KADC, or MMAE. Spheroids were incubated in an IncuCyte S3 Live-Cell Analysis System for 5 d with images collected every 4 h.

[2] = test system: U87MG hip xenografts; assay: Therapeutic efficacy study, once weekly for four weeks, tumors implanted with Matrigel; type: in vivo, Nu/Nu mice
Experimental: To further investigate each compound, several changes were made to the experimental design. Because of the KDC's rapid systemic clearance, a significant portion of the injected dose is likely lost and the ˜0.6 mg/kg dose was therefore increased substantially. Because dosages for chemotherapeutics are conventionally determined as mass of chemotherapeutic per patient body surface area, a more clinically relevant comparison of equal mass was selected over an equimolar comparison. Next, a once-per-week dosing regimen was selected to coincide with realistic clinical dosing considerations. Finally, tumors were implanted with Matrigel matrix to increase tumor growth and with only 2.5×10^6 cells per injection to decrease initial tumor necrosis. Mice bearing U87MG hip xenografts were equally distributed into the following treatment groups with intravenous injections given once weekly for 4 weeks: KDC, KFDC, KADC, unconjugated proteins, or a PBS control. Each drug conjugate was also evaluated at a low dose and a high dose.
For tumor cell implantation, female Nu/Nu mice (Charles River Laboratory) were anesthetized with 2.5% isoflurane by inhalation with a flow rate of 1 L/min. A volume of 200 μL of 50/50 PBS/Matrigel (Corning), containing 2.5×10^6 U87MG cells, was injected subcutaneously into the right flank. Tumors were allowed to grow for 7 days until reaching a size of approximately 35 mm^2. For therapeutic efficacy studies, mice were binned into experimental groups to ensure equivalent average tumor sizes and starting body weights across all groups.
Mice bearing U87MG flank xenografts, as described above, were injected intravenously with PBS, KDC, KFDC, KADC, or controls proteins. Treatments were administered once per week for four weeks. Tumors were measured three times per week using digital calipers and animal weights were recorded on each dosing day to monitor for potential weight loss as a measure of compound toxicity. Tumor area was calculated as the longest axis of the tumor multiplied by the perpendicular axis. Euthanasia criteria were defined as a tumor area greater than 150 mm^2 or a loss of 20% body weight.

[3] = Liver and kidney histology (H&E) of treated mice; type: in vivo; details: scored by independent pathologist, after the 60-day experiment
From the text: Despite the impressive in vivo efficacy of the KDCs, there are potential concerns of acute toxicity given its rapid renal filtration and high molar dose of MMAE. […] After the 60-day experiment, livers and kidneys were harvested from treated mice, fixed in 4% paraformaldehyde (PFA), then embedded in paraffin blocks for tissue sectioning. Sections were stained with hematoxylin and eosin to visualize cellular structures and scored by an independent pathologist for evidence of acute toxicity. Representative images shown in FIG. 26 were all free from indicators of toxicity and all samples were scored identically to healthy mice.

[4] = test system: U87MG hip xenografts; assay: Pilot therapeutic efficacy study, dosing 3 times per week for 3 weeks; type: in vivo, Nu/Nu mice
Experimental: Using this treatment regimen as a starting point, a preliminary study was set up using 5 mice per treatment group. Mice were inoculated with 5×10^6 U87MG cells in the right flank and tumors were allowed to grow and establish until reaching an approximate area of 30 mm^2. Mice were then randomized into 1 of 4 treatment groups: PBS, KDC, KFDC, or KADC. To keep groups equivalent and provide the highest chance of efficacy for KDC despite its short circulatory half-life, all drug conjugate groups dosed 3 times per week for 3 weeks. Each dose contained the appropriate drug conjugate normalized to 2.38 nmol MMAE (˜0.6 mg/kg KDC, ˜5 mg/kg KFDC, ˜10 mg/kg KADC).

[5] = 1 mg/kg once weekly for 4 weeks
[6] = 5 mg/kg once weekly for 4 weeks

Compound: CC[C@H](C)[C@@H]([C@@H](CC(=O)N1CCC[C@H]1[C@H](OC)[C@@H](C)C(=O)N[C@H](C)[C@@H](O)c1ccccc1)OC)N(C)C(=O)[C@@H](NC(=O)[C@H](C(C)C)N(C)C(=O)OCc1ccc(NC(=O)[C@H](CCCNC(N)=O)NC(=O)[C@@H](NC(=O)CCOCCOCCOCCNC(=O)CCC(=O)N2Cc3ccccc3-c3c(nnn3CCC[C@@H]3NC(=O)[C@@H]4CSSC[C@@H]5NC(=O)[C@H](C(C)C)NC(=O)[C@H](CSSC[C@H](NC(=O)CN)C(=O)N6CCC[C@H]6C(=O)N[C@@H](CCCNC(=N)N)C(=O)N6CCC[C@H]6C(=O)N[C@@H](CCCNC(=N)N)C(=O)NCC(=O)N[C@@H](CC(=O)O)C(=O)N[C@@H](CC(N)=O)C(=O)N6CCC[C@H]6C(=O)N6CCC[C@H]6C(=O)N[C@@H](CC(C)C)C(=O)N[C@@H]([C@@H](C)O)C(=O)N4)NC(=O)CNC(=O)[C@H](C)NC(=O)[C@H](CC(C)C)NC(=O)[C@H](CSSC[C@@H](C(=O)NCC(N)=O)NC(=O)[C@H](Cc4ccc(O)cc4)NC(=O)CNC(=O)[C@H](CC(N)=O)NC(=O)[C@@H]4CCCN4C(=O)CNC5=O)NC(=O)[C@H](CC(=O)O)NC(=O)[C@H](CO)NC(=O)[C@H](CC(=O)O)NC(=O)[C@H](CCC(N)=O)NC3=O)-c3ccccc32)C(C)C)cc1)C(C)C [KDC] (I: H-GCPRPRGDNPPLTC[X1]QDSDCLAGCVCGPNGYCG-NH2 / II: V[Cit][PABC][NMeV]V[Dil][Dolaproine]-X2; disulfide I:2-I:24, I:14-I:26, I:20-I:32; linker I:15-II:N via X3; N-terminus assumed)
- spheroid toxicity ([1]; 50 or 100 nM, imaged every 4 h): ~100%
- potency when co-administered with unconjugated knottin ([1]; drug conjugate plus unconjugated knottin): equivalently effective with or without addition of unconjugated knottin
- tumor growth [2, 5]: significantly delayed tumor growth but did not cause tumor regression
- tumors regrew after the end of treatment [2, 5]: 5 of 5
- efficacy [2, 6]: very effective
- tumor regression [2, 6]: 4 of 5
- comparison by mass of drug conjugate per kg mouse body weight ([2]; once weekly for 4 weeks): significantly outperformed both KFDC and KADC
- liver and kidney histology, acute toxicity [3]: no evidence of acute toxicity
- cytostatic effect maintained ([4]; dose normalized to 2.38 nmol MMAE (0.6 mg/kg KDC)): 4 of 5
- complete tumor regression ([4]; dose normalized to 2.38 nmol MMAE, 5 mice per group): 1 of 5

Reference: patent US20220211861A1, “DRUG CONJUGATES AND METHODS OF USING SAME” (The Board of Trustees of the Leland Staford Junior …, priority 2019, published 2022)
